Peptide text beside a SMILES is read from it.
How the values were obtained:
[1] = no reference given; cited from earlier work
[2] = target: T1, SARS-CoV-2 main protease (M^pro) (Severe acute respiratory syndrome coronavirus 2, UniProt P0DTD1); experiment: SARS-CoV-2 main protease inhibitor screening assay (Cayman Chemicals, Catalogue Number 701960); type: biochemical; settings: for response in SARS-CoV-2 M^pro inhibition screening (in words: active/inactive) / % inhibition of SARS-CoV-2 M^pro: dendron 20 μM; for % inhibition of SARS-CoV-2 M^pro: 30 min pre-incubation, 2 h with substrate, room temperature, three wells
T1 construct: purchased Cayman Chemicals 701960

SARS-CoV-2 main protease = settings: read-out: IC50 value of the positive control; cited from earlier work
[3] = fluorescence ex 340 nm/em 490 nm

Molecule	response in SARS-CoV-2 M^pro inhibition screening (in words: active/inactive) [2]	% inhibition of SARS-CoV-2 M^pro [2, 3] [%]	also measured
N[C@@H](CCC(=O)O)C(=O)O [glutamic acid]			pKa1(COOH) [1]: 2.19; pKa2(side chain COOH) [1]: 4.25
Ptz-GE(wE-COOH)wE-COOH [169C]	active	31	
Ptz-GE(FE-COOH)FE-COOH [compound 112]	active	25	
Ptz-GE(YE-COOH)YE-COOH [compound 113]	inactive	< 25	
Ptz-GE(HE-COOH)HE-COOH [169A]	inactive	< 25	
O=C(O)CC[C@H](NC(=O)[C@H](Cc1c[nH]c2ccccc12)NC(=O)CC[C@H](NC(=O)CNC(=O)CCN1c2ccccc2Sc2ccccc21)C(=O)N[C@@H](Cc1c[nH]c2ccccc12)C(=O)N[C@@H](CCC(=O)O)C(=O)O)C(=O)O [compound 114, Ptz-GE(WE-COOH)WE-COOH] (HELM PEPTIDE1{[O=C(CCN1c2ccccc2Sc2ccccc21)[*:2]].G.E.W.E}|PEPTIDE2{W.E}$PEPTIDE1,PEPTIDE2,3:R3-1:R1$$$V2.0)	active	33	IC50 ([2]; figure 3B, fluorescence ex 340 nm/em 490 nm): 65 µM
Boc-E(WE-COOH)WE-COOH [C91]	non-responsiveness	< 25	
CC(C)C[C@H](NC(=O)OCc1ccccc1)C(=O)N[C@@H](CC1CCNC1=O)C(O)S(=O)(=O)O (stereo partly shown) [GC376]			IC50 (SARS-CoV-2 main protease): 0.15 ± 0.03 µM

From publication PMC11961260 (Royal Society Open Science, 2025)
